Source: publication PMC3989207, “Subchronic Toxicological Study of Two Artemisinin Derivatives in Dogs” (PLoS ONE, 2014)

Key:
beagle dogs [1] = experiment: Electrocardiography in the 13-week repeated-dose dog study; assay type: in vivo; conditions: for Heart rate: 6 mg kg^-1 per day (ART p.o., ARM i.m.), vs control group
Description: (§1) The first day of treatment was regarded as day one in the study. […] Oral administration was performed about 2 h after feeding. ARM was administered by a bolus intramuscular infusion through a 25-gauge needle at a constant volume of 2 ml kg^−1 once a day into the gluteal and infraspinous muscles. Two dogs of each sex from each group were allowed to recover without further treatment for an additional 4 weeks.
Electrocardiograms were recorded using an Auto Electrocardiogram (ECG-9130P, Nihon Kohden Corporation, Japan). Recordings were taken from each dog, while conscious, every 2 weeks from week-1. Leads I, II, III, aVR, aVL and aVF were utilized. The electrocardiography (ECG) parameters included heart rate, PR, QRS and QT interval, and QRS and T wave amplitudes. As the PQ and QT intervals vary with heart rate, they were adjusted to an RR-interval of 500 ms, corresponding to a heart rate of 120 bpm using the following equation: QT500 = QT – 0.084×(RR – 500).

beagle dogs [2] = experiment: Clinical chemistry in the 13-week repeated-dose dog study; assay type: in vivo
Description: as §1
Blood samples were collected from the femoral vein of each dog prior to treatment and every 2 weeks after the first day of treatment. Hematology parameters were measured using an automated hematology analyzer (Sysmex, XT-2000iv, Toa Medical Electronics Co. Ltd., Kobe, Japan) using standard methods. Test parameters included hemoglobin (Hb) levels, the hematocrit (Hct) fraction, erythrocyte (RBC) count, leukocyte (WBC) count, neutrophilic granulocyte fraction (NE%), monocyte fraction (MO%), lymphocyte levels (LY%), platelet count (PLT), reticulocyte count (RET%) and RBC morphology. The following clinical chemistry parameters were measured using a Hitachi-7180 Chemistry Analyzer (High-Technologies Corporation, Tokyo, Japan) and standard methods: glucose, blood urea nitrogen, inorganic phosphorus, creatinine, total protein, albumin, calcium, aspartate aminotransferase (AST), alanine aminotransferase, alkaline phosphatase, total bilirubin, creatine kinase (CK), sodium, potassium and chloride.

beagle dogs [3] = experiment: Pathologic (histopathological) examination of organs, brain and cardiac conduction system; assay type: in vivo, dog
Description: as §1
Termination of treatment was scheduled to occur on weeks 4, 8 (two interim necropsies) and 13, followed by a 4-week recovery period. For pathological examinations, the animals were euthanized within 24 h of the final drug administration with sodium pentobarbital, followed by exsanguination via the femoral artery. A gross necropsy was performed, including a thorough visual examination of all the internal organs. Weights were obtained for the brain, heart, liver, spleen, lung, kidneys, adrenals, thyroid/parathyroids, thymus, pancreas and ovaries/testes/prostate, and organ-to-body weight ratios were calculated. For each animal, representative samples from approximately 48 organs and tissues were taken and fixed in neutral buffered 10% formalin, except for the sternum, which was retained in Helly’s fixative (1000 ml distilled water, 25 g potassium dichromate, 10 g sodium sulfate, 50 g mercuric chloride, 50 ml 40% formaldehyde). Histopathological sections of all samples were prepared by embedding in paraffin wax, multiple-sectioning and staining with hematoxylin and eosin (HE). Samples of the left ventricular myocardium, right lateral hepatic lobe and right kidney from two animals of each sex from each group were fixed immediately after exsanguination in 2.5% glutaraldehyde, post-fixed in 1.0% osmium tetroxide, and embedded in plastic. Ultrathin liver, kidney and heart sections were examined with a Hitachi H-600 transmission electron microscope (TEM). All other tissues were examined by light microscopy.
After removal, the cardiac conduction system, including the sinoatrial node (SAN) and atrioventricular node (AVN), were selected by the Palate method. The brain was sectioned at multiple transverse levels to obtain susceptible brain regions. To improve the definition of the brain lesions, toluidine stains were applied on selected duplicate sections, and all preparations were examined under a light microscope. For pathologic examinations, degenerative neurons were evaluated on three randomly selected brain sections. The adjacent fields of neurons in each selected section were counted using a microscope at a magnification of 200×. […] The severity of the neuropathological lesions was defined as follows: the total number of neuropathological lesions per section area yielded a severity score from 0 to 4, where 0 = unaffected, 1 = minimally affected neurons with one degenerative cell per section, 2 = two degenerative cells per section, 3 = three degenerative cells per section and 4 = multiple degenerative areas per section.

beagle dogs [4] = experiment: Clinical observations; assay type: in vivo
Description: as §1
All dogs were assessed once daily for mortality and toxicological or other clinical signs, including behavioral changes (such as tremor, gait impairment, balance disturbance and auditory impairment), appetite, excreta (urinalysis for specific gravity, ketone bodies and pH), balance and coordination. Standard and acceptable veterinary health care practices were used during this evaluation to ensure good health of the animals.

beagle dogs [5] = experiment: Organ weights at necropsy; assay type: in vivo, dog
Description: as §1
Termination of treatment was scheduled to occur on weeks 4, 8 (two interim necropsies) and 13, followed by a 4-week recovery period. For pathological examinations, the animals were euthanized within 24 h of the final drug administration with sodium pentobarbital, followed by exsanguination via the femoral artery. A gross necropsy was performed, including a thorough visual examination of all the internal organs. Weights were obtained for the brain, heart, liver, spleen, lung, kidneys, adrenals, thyroid/parathyroids, thymus, pancreas and ovaries/testes/prostate, and organ-to-body weight ratios were calculated. For each animal, representative samples from approximately 48 organs and tissues were taken and fixed in neutral buffered 10% formalin, except for the sternum, which was retained in Helly’s fixative (1000 ml distilled water, 25 g potassium dichromate, 10 g sodium sulfate, 50 g mercuric chloride, 50 ml 40% formaldehyde). […]

Mouse = system: Mouse; design: method as in Nontprasert et al., 2000 [42]; conditions: 300 mg kg^−1 per day, p.o. for 28 days, ref Nontprasert et al., 2000 [42]; cited from earlier work
Rats = system: Rats; design: method as in Xiao et al. (2002) [31]; conditions: cited from earlier work
[6] = weeks 4 and 6 post-treatment, vs control group (p<0.01)
[7] = Week 4, 6 mg kg^-1 per day (ART p.o., ARM i.m.)
[8] = Week 8, 6 mg kg^-1 per day (ART p.o., ARM i.m.)
[9] = Week 13, 6 mg kg^-1 per day (ART p.o., ARM i.m.)
[10] = Week 17 (after 4-week recovery)
[11] = both treated groups, no significant differences
[12] = oral 80 and 400 mg kg^−1 once every 2 weeks for 5 months, ref Xiao et al. (2002) [31]
[13] = oral high dose of 400 mg kg^−1, ref Xiao et al. (2002) [31]

CO[C@H]1O[C@@H]2O[C@@]3(C)CC[C@H]4[C@H](C)CC[C@@H]([C@H]1C)[C@@]24OO3 [ARM, artemether]
Heart rate (beagle dogs [1]; Week 4): - (“-” = No effect)
Heart rate (beagle dogs [1]; Week 8): - (“-” = No effect)
Heart rate (beagle dogs [1]; Week 13): - (“-” = No effect)
mean QT intervals (adjusted for heart rate, QT500) (beagle dogs [1]; week 3 until the final drug treatment, male and female dogs, vs vehicle control): prolonged
Clinical chemistry: AST(M) (beagle dogs [2]; Week 13, males, 6 mg kg^-1 per day): ↑↑AST(M)
serum AST (beagle dogs [2]; [6]): significant increases
serum CK (beagle dogs [2]; [6]): significant increases
serum albumin levels (beagle dogs [2]; weeks 4 and 10, same changes also in peanut oil only group): significant decrease
Cardiac conduction system foci (dogs affected/examined) (beagle dogs [3]; [7]): 0
Extramedullary hematopoiesis (dogs affected/examined) (beagle dogs [3]; [7]): 2/4
Hepatocyte necrosis (dogs affected/examined) (beagle dogs [3]; [7]): 3/4
Inhibition of erythropoiesis (dogs affected/examined) (beagle dogs [3]; [7]): 4/4
Neuronal necrosis (dogs affected/examined) (beagle dogs [3]; [7]): 0
Tubular cell degeneration (dogs affected/examined) (beagle dogs [3]; [7]): 4/4
Cardiac conduction system foci (dogs affected/examined) (beagle dogs [3]; [8]): 0
Extramedullary hematopoiesis (dogs affected/examined) (beagle dogs [3]; [8]): 3/4
Hepatocyte necrosis (dogs affected/examined) (beagle dogs [3]; [8]): 2/4
Inhibition of erythropoiesis (dogs affected/examined) (beagle dogs [3]; [8]): 2/4
Neuronal necrosis (dogs affected/examined) (beagle dogs [3]; [8]): 2/4
Tubular cell degeneration (dogs affected/examined) (beagle dogs [3]; [8]): 3/4
Cardiac conduction system foci (dogs affected/examined) (beagle dogs [3]; [9]): 0
Extramedullary hematopoiesis (dogs affected/examined) (beagle dogs [3]; [9]): 1/4
Hepatocyte necrosis (dogs affected/examined) (beagle dogs [3]; [9]): 0
Inhibition of erythropoiesis (dogs affected/examined) (beagle dogs [3]; [9]): 2/4
Neuronal necrosis (dogs affected/examined) (beagle dogs [3]; [9]): 4/4
Tubular cell degeneration (dogs affected/examined) (beagle dogs [3]; [9]): 2/4
Cardiac conduction system foci (dogs affected/examined) (beagle dogs [3]; [10]): 0
Extramedullary hematopoiesis (dogs affected/examined) (beagle dogs [3]; [10]): 0
Hepatocyte necrosis (dogs affected/examined) (beagle dogs [3]; [10]): 0
Inhibition of erythropoiesis (dogs affected/examined) (beagle dogs [3]; [10]): 0
Neuronal necrosis (dogs affected/examined) (beagle dogs [3]; [10]): 1/4
Tubular cell degeneration (dogs affected/examined) (beagle dogs [3]; [10]): 1/4
dogs with neuropathological abnormalities (beagle dogs [3]; after the 4-week recovery period, mild damage): one of the four dogs
histological examination of sternal bone marrow (beagle dogs [3]; [11]): mild inhibition of erythropoiesis and a decreased count of mature erythrocytes
spleen histology (beagle dogs [3]; [11]): extramedullary hematopoiesis was observed in the spleen
mean severity score of the lesions in the brain (beagle dogs [3]; score 0 (unaffected) to 4 (multiple degenerative areas per section)): 2.14
light microscopy of liver sections (beagle dogs [3]; some dogs, characterized as very mild): degenerative hepatocellular changes
histopathological changes in the kidneys (beagle dogs [3]; vs control groups): tubular epithelium vacuolation and necrosis
dogs with neuropathological abnormalities (beagle dogs [3]; week 8, two of the four dogs examined): 50%
dogs with neuropathological abnormalities (beagle dogs [3]; week 13, four of the four dogs examined): 100%
behavioral changes (beagle dogs [4]; 6 mg kg^-1 per day i.m. for 13 weeks): not observed
main clinical signs (beagle dogs [4]; 6 mg kg^-1 per day i.m., after treatment for 4 weeks up to the end of the recovery period): skin thickening at the injection site and myonecrosis-like features
absolute or relative weights of brain, heart, liver, spleen, lungs, kidneys, adrenals, thyroid/parathyroids, pancreas, ovaries, testes or prostate (beagle dogs [5]; 6 mg kg^-1 per day, vs relative controls): no statistically significant effects
thymus weight (beagle dogs [5]; weeks 4 and 8, one of the two male dogs, i.m.): mild decrease
Effect (toxicology) (Mouse): Balance/gait disturbances and mortality
Hb levels (Rats; [12]): reversible increase
QT interval (Rats; [12]): No changes
reticulocyte count (Rats; [12]): reversible reduction
liver finding (Rats; [13]): transient focal vesicle degeneration of the liver
neuropathological alterations (Rats; [13]): no evidence of neuropathological alterations
